# Test results: US11590092B2, “Skin probiotic” (The Regents of the University of California, priority 2014, dated 2023)
# What was measured:
# USA300 [1] = assay: MBC assay against USA300; assay type: cell-based, Staphylococcus aureus
# Procedure: To determine the MBC of propionic acid, USA300 (10^6 CFU/ml) were incubated with propionic acid at various concentrations (1.25-100 mM in PBS) as indicated in each individual experiment in media on a 96-well microplate (100 μl per well) overnight. The control received only PBS. After incubation, the bacteria were diluted 1:10-1:10^6 with PBS. […] To determine the pH effect on the bacterial growth, USA300 in TSB was incubated with 2.5 mM propionic acid on a 96-well microplate (100 μl per well) overnight before spotting on an agar plate.
# To determine the minimal bactericidal concentration (MBC) and minimal fungicidal concentration (MFC) of propionic acid, microorganisms (10^6 colony forming units (cfu)/ml) were incubated overnight in media with propionic acid (1.25-2,000 mM) in a 96-well microplate (100 μl per well). The control only received PBS. After incubation, the microorganisms were diluted 1:10-1:10^6 into PBS. […]
# [2] = Skin wound healing without USA300 inoculation; assay type: in vivo, ICR mice; conditions: topical 100 mM propionic acid vs PBS (pH 7.1) and PBS/pH (pH 3.5), 8-day period
# Procedure: ICR mice (2-3-month-old female) were anesthetized by isoflurane. In each experiment, there were five mice per group. A wound 5 mm in length was made on the dorsal skin after shaving with electrical clippers. Once the skin wound was created, 5 μl of propionic acid (100 mM), PBS (pH 7.1) or PBS (pH 3.5) was applied topically to the wounded areas. The wounds were left uncovered throughout the experimental period. For bacterial infection, USA300 (2×10^6 CFU in PBS) was applied topically to the wounded areas 10 min after application of propionic acid or PBS. For the measurement of the extent of wound closure, a transparent parafilm was put on the top of the wounded skin. The wound area was marked on the parafilm by drawing an area which covered the whole skin wound. The lesion size was measured daily for 8 days was calculated using the ImageJ software [National Institutes of Health (NIH), Bethesda, Md., USA] and expressed as mm^2. Student's t-test was used to determine the significance of the differences between groups of the PBS (pH 7.1)- and propionic acid-treated mice as well as the PBS (pH 7.1)- and PBS (pH 3.5)-treated mice. Data represent the mean±SD from three independent experiments. All experiments using mice were conducted in a Biosafety Level 2 (BSL-2) facility and with accordance to institutional guidelines for animal experiments.
# USA300 [3] = assay: Measurement of intracellular pH of USA300 (cFSE probe); assay type: cell-based, Staphylococcus aureus; conditions: 25 mM propionic acid, vs PBS
# Procedure: Measurement of intracellular pH. […] A drop in relative fluorescence indicated the decrease in intracellular pH. […] The fluorescence of the bacteria-free supernatant was measured and deducted from values for the treated suspensions.
# Fluorescence was measured for 5 min every min using an excitation wavelength of 490 nm and an emission wavelength of 520 nm. A reduction in relative fluorescence reflected a decrease in intracellular pH. Fluorescence of bacteria-free supernatant obtained by centrifugation at 5,000×g for 5 min after the 5-min assay was measured to correct for background fluorescence. Calibration curves were obtained by incubation of untreated, cFSE-loaded bacteria in buffer containing 50 mM glycine, 50 mM citric acid, 50 mM Na2HPO4.2H2O and 50 mM KCl adjusted to various pH values from 4-10. 1 μM valinomycin and nigericin (Sigma) were added to equilibrate the intracellular and extracellular pH.
# C. albicans [4] = assay: Minimal fungicidal concentration test against C. albicans; assay type: cell-based, Candida albicans; conditions: MBC/MFC test
# Procedure: To determine the minimal bactericidal concentration (MBC) and minimal fungicidal concentration (MFC) of propionic acid, microorganisms (10^6 colony forming units (cfu)/ml) were incubated overnight in media with propionic acid (1.25-2,000 mM) in a 96-well microplate (100 μl per well). The control only received PBS. After incubation, the microorganisms were diluted 1:10-1:10^6 into PBS. The dilutions (5 μl) were spotted onto agar media to count cfu; MBC/MFC were determined at 99.9% killing level. To determine the effect of pH on growth of S. aureus USA300, the bacterium was incubated in TSB at pH 5.8 and 6.8, and TSB with 25 mM propionic acid at pH 5.8 and 6.8 (buffered with 4-(2-hydroxyethyl)-1-piperazineethanesulfonic acid (HEPES)) in a 96-well microplate overnight before spotting onto agar plates.
# C. albicans [5] = assay: Radial diffusion assay against C. albicans; assay type: cell-based, Candida albicans
# Procedure: (§1) A radial diffusion assay (RDA) was performed as follows. Briefly, microorganisms in the mid-log phase were centrifuged at 12,000×g for 10 min, washed with PBS, and dispersed (10^5 cfu/ml) in agar consisting of 1% (w/v) agarose (Sigma) and 3% (w/v) culture medium in PBS at 42° C. Then, the agar was poured into Petri dishes and solidified. Wells (diameter 3 mm and volume 30 μl) were created by poking a pipette tip into the semi-solidified agar. Propionic acid was serially diluted in PBS to concentrations ranging from 5 to 2,000 mM, and 30 μl aliquots were added to the wells; PBS served as the control. After 3 h of incubation, a 10 ml overlay gel composed of 3% culture medium and 1% agarose was poured onto the plates, where after the plates were incubated overnight and examined for zones of growth inhibition.
# E. coli = assay: Radial diffusion assay against E. coli; assay type: cell-based, Escherichia coli
# Procedure: as §1
# [6] = system: S. aureus strains ATCC29247 and CMCC(B)26003; assay: Inhibition of other S. aureus strains; assay type: cell-based, Staphylococcus aureus
smiles,measurement,setting,value
CCC(=O)O [propionic acid],antimicrobial activity against USA300,USA300 [1]; 25 mM,excellent antimicrobial activity
same,bacterial numbers of USA300,"USA300 [1]; 25 mM propionic acid (pH 5.8), 24 h, USA300 10^6 CFU",4.9±0.2×10^4 CFU/ml
same,antimicrobial activity against USA300 after buffering,USA300 [1]; 25 mM propionic acid (pH 6.8) buffered with ammonium hydroxide,remained
same,concentration that completely killed USA300,USA300 [1]; MBC test,greater than or equal to 100 mM
same,concentration that effectively suppressed the growth of USA300,"USA300 [1]; MBC test, more than 1 log10 reduction",greater than 25 mM
same,concentration that completely killed USA300,"USA300 [1]; MBC test, listed as Propionic acid",greater than 100 mM
same,MBC,"USA300 [1]; Staphylococcus aureus, in TSB, USA300 10^6 CFU/ml, overnight",25 mM
same,concentration for a complete growth inhibition of USA300,"USA300 [1]; dissolved in 4% dimethyl sufoxide, overnight",100 Mm
same,MBC (>1 log10 inhibition) against USA300,"USA300 [1]; dissolved in 4% dimethyl sufoxide, overnight, 0-100 mM",25 mM
same,changes in lesion sizes of wounds without USA300 inoculation,[2],not statistically different
same,intracellular pH of USA300,USA300 [3],considerably lowered
same,concentration that completely killed C. albicans,C. albicans [4],greater than or equal to 25 mM
same,concentration that effectively suppressed the growth of C. albicans,C. albicans [4],greater than 10 mM
same,"minimum effective concentration for growth inhibition zones, C. albicans",C. albicans [5],10 mM
same,"minimum effective concentration for growth inhibition zones, E. coli",E. coli,10 mM
same,inhibition of S. aureus strains besides USA300,[6],inhibit
